From ChEMBL document CHEMBL1144826, “Selective vasodilatation effect of sargahydroquinoic acid, an active constituent of Sargassum micracanthum, on the basilar arteries of rabbits” (Bioorg Med Chem Lett, 2008)

How the values were obtained:
[1] = Vasodialative effect on high K+-induced vasoconstriction in rabbit carotid artery; type: functional, Oryctolagus cuniculus
[2] = Vasodialative effect on high K+-induced vasoconstriction in rabbit basilar artery; type: functional, tissue-based, Oryctolagus cuniculus
[3] = Selectivity index, ratio of EC50 for vasodialative effect on high K+-induced vasoconstriction in rabbit carotid artery to basilar artery; type: functional, Oryctolagus cuniculus

EC50 [1]: 140 µM
EC50 [2]: 11.8 µM
Structure (SMILES): CC(C)=CCC/C(=C/CC/C(C)=C/CC/C(C)=C/Cc1cc(O)cc(C)c1O)C(=O)O [SARGAHYDROQUINOIC ACID]
Ratio EC50 [3]: 11.9
